Laboratory results published in patent US20240207427A1, “SELECTIVE DRUG RELEASE FROM INTERNALIZED CONJUGATES OF BIOLOGICALLY ACTIVE COMPOUNDS” (priority 2021, published 2024).
pIC50: −log10 of the molar value. Read-outs that look alike come from different tables or passages of the source.

Key:
Format in all cases: cell-based
[1] = test system: renal carcinoma cells (786-O); experiment: In vitro potency (CellTiter-Glo, 96 h), 786-O; settings: Homo sapiens, 786-0, 96 h, CellTiter-Glo after 96 h exposure
Summary of the method: (§1)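 Log-phase cells were seeded for 24 h in RPMI 1640 with 20% FBS, then exposed to serially diluted antibody-drug conjugates or free camptothecin drug for 4 days at 37 °C. Growth inhibition was read by luminescence, and IC50 values were reported in ng/mL and nmol/L.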

melanoma cells (A2058) = experiment: In vitro potency (CellTiter-Glo, 96 h), A2058; settings: Homo sapiens, A2058, 96 h, read-out: IC50 (nmol/L) A2058
Summary of the method: (§2)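 Seed log-phase cells 24 h (RPMI 1640, 20% FBS); add ADC serial dilutions; incubate 96 h, 37 °C; read luminescence; IC50 in ng/mL.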

[2] = test system: pancreatic cancer cells (BxPC3); experiment: In vitro potency (CellTiter-Glo, 96 h), BxPC3; settings: Homo sapiens, BXPC-3, 96 h, CellTiter-Glo after 96 h exposure
Summary of the method: (§3)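 IC50 (ng/mL) was derived from growth inhibition of STR-authenticated lines held in culture under 2 months after thawing. Cells were grown in RPMI 1640 plus 20% FBS and treated with ADC dilution series for 96 h at 37 °C.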

[3] = test system: non-small-cell lung cancer cells (Calu1); experiment: In vitro potency (CellTiter-Glo, 96 h), Calu1; settings: Homo sapiens, Calu-1, 96 h, read-out: IC50 (nmol/L) Calu1
Summary of the method: as §2

[4] = test system: anaplastic large cell lymphoma cells (DEL); experiment: In vitro potency (CellTiter-Glo, 96 h), DEL
Summary of the method: as §1

[5] = test system: anaplastic large cell lymphoma cells (DELBVR); experiment: In vitro potency (CellTiter-Glo, 96 h), DELBVR
Summary of the method: as §1

[6] = test system: anaplastic large cell lymphoma cells (Karpas299); experiment: In vitro potency (CellTiter-Glo, 96 h), Karpas299; settings: Homo sapiens, KARPAS-299, 96 h, CellTiter-Glo after 96 h exposure
Summary of the method: as §1

[7] = test system: Hodgkin's lymphoma cells (L540cy); experiment: In vitro potency (CellTiter-Glo, 96 h), L540cy
Summary of the method: as §1

Ls174T cells = experiment: In vitro potency (CellTiter-Glo, 96 h), Ls174T; settings: Homo sapiens, LS174T, CellTiter-Glo after 96 h exposure
Summary of the method: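 Growth inhibition after 96 h at 37 °C with test article, measured by luminescence; cells in RPMI 1640, 20% FBS.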

[8] = test system: breast cancer cells (MDA-MB-231); experiment: In vitro potency (CellTiter-Glo, 96 h), MDA-MB-231; settings: Homo sapiens, MDA-MB-231, 96 h, CellTiter-Glo after 96 h exposure
Summary of the method: as §1

[9] = test system: acute myeloid leukemia cells (MOLM-13); experiment: In vitro potency (CellTiter-Glo, 96 h), MOLM-13; settings: Homo sapiens, MOLM-13, 96 h, CellTiter-Glo after 96 h exposure
Summary of the method: as §3

[10] = test system: B-lymphocyte cancer cells (SU-DHL4); experiment: In vitro potency (CellTiter-Glo, 96 h), SU-DHL-4; settings: Homo sapiens, SU-DHL-4, 96 h, CellTiter-Glo after 96 h exposure
Summary of the method: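 RPMI 1640/20% FBS cultures, log phase, plated 24 h → ADC titration → 4 d, 37 °C → luminescence → IC50, ng/mL.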

[11] = CPT free drugs, Table 24, read-out: IC50 (nmol/L) 786-O
[12] = CPT free drugs, Table 24, CellTiter-Glo after 96 h exposure
[13] = CPT free drugs, Table 24, read-out: IC50 (nmol/L) BxPC3
[14] = CPT free drugs, Table 24, CellTiter-Glo after 96 h exposure, read-out: IC50 (nmol/L) DEL
[15] = CPT free drugs, Table 24, CellTiter-Glo after 96 h exposure, read-out: IC50 (nmol/L) DELBVR
[16] = CPT free drugs, Table 24, read-out: IC50 (nmol/L) Karpas299
[17] = CPT free drugs, Table 24, CellTiter-Glo after 96 h exposure, read-out: IC50 (nmol/L) L540cy
[18] = CPT free drugs, Table 24, read-out: IC50 (nmol/L) Ls174T
[19] = CPT free drugs, Table 24, read-out: IC50 (nmol/L) MDAMB231
[20] = CPT free drugs, Table 24, read-out: IC50 (nmol/L) MOLM-13
[21] = CPT free drugs, Table 24, read-out: IC50 (nmol/L) SU-DHL-4

SMILES | pIC50 [1, 11] | pIC50 (melanoma cells (A2058); [12]) | pIC50 [2, 13] | pIC50 [3, 12] | pIC50 [4, 14] | pIC50 [5, 15] | pIC50 [6, 16] | pIC50 [7, 17] | pIC50 (Ls174T cells; [18]) | pIC50 [8, 19] | pIC50 [9, 20] | pIC50 [10, 21] | other results
CC[C@@]1(O)C(=O)OCc2c1cc1n(c2=O)Cc2c-1nc1cc(F)ccc1c2CN [Compound 2f] | 8.22 | 8.70 | 8.05 | 7.40 | 9.00 | 8.92 | 8.22 | 8.52 | 8.41 | 8.40 | 7.96 | 8.40 | –
CC[C@@]1(O)C(=O)OCc2c1cc1n(c2=O)Cc2c-1nc1ccc(C(F)(F)F)cc1c2CN [Compound 2g] | 6.99 | 7.43 | 6.59 | 6.12 | 7.75 | 7.47 | 6.66 | 7.21 | 7.19 | 7.10 | 6.22 | 7.22 | –
CC[C@@]1(O)C(=O)OCc2c1cc1n(c2=O)Cc2c-1nc1cc(F)c(C)cc1c2CN [Compound 2h] | 8.52 | 9.00 | 8.10 | 7.80 | 9.30 | 9.10 | 8.52 | 8.52 | 8.77 | 8.70 | 7.85 | 8.70 | –
CC[C@@]1(O)C(=O)OCc2c1cc1n(c2=O)Cc2c-1nc1cc(F)c(OC)cc1c2CN [Compound 2i] | 8.30 | 8.70 | 8.00 | 7.51 | 9.00 | 9.00 | 8.30 | 8.70 | 8.47 | 8.40 | 7.89 | 8.40 | –
CC[C@@]1(O)C(=O)OCc2c1cc1n(c2=O)Cc2c-1nc1cc(F)c(C)c(F)c1c2CN [Compound 2j] | – | – | – | – | – | – | – | – | – | – | – | – | pIC50 ([1]; read-out: IC50 (nmol/L) 786-O, CPT free drugs, Table 24): 8.52; pIC50 (melanoma cells (A2058)): 8.70; pIC50 ([2]; read-out: IC50 (nmol/L) BxPC3, CPT free drugs, Table 24): 8.05; pIC50 [3]: 7.64; pIC50 ([4]; read-out: IC50 (nmol/L) DEL, CPT free drugs, Table 24, CellTiter-Glo after 96 h exposure): 9.00; pIC50 ([5]; read-out: IC50 (nmol/L) DELBVR, CPT free drugs, Table 24, CellTiter-Glo after 96 h exposure): 9.00; pIC50 ([6]; read-out: IC50 (nmol/L) Karpas299, CPT free drugs, Table 24): 8.70; pIC50 ([7]; read-out: IC50 (nmol/L) L540cy, CPT free drugs, Table 24, CellTiter-Glo after 96 h exposure): 9.00; pIC50 (Ls174T cells; 96 h, read-out: IC50 (nmol/L) Ls174T, CPT free drugs, Table 24): 8.52; pIC50 ([8]; read-out: IC50 (nmol/L) MDAMB231, CPT free drugs, Table 24): 8.70; pIC50 ([9]; read-out: IC50 (nmol/L) MOLM-13, CPT free drugs, Table 24): 8.05; pIC50 ([10]; read-out: IC50 (nmol/L) SU-DHL-4, CPT free drugs, Table 24): 8.70
CC[C@@]1(O)C(=O)OCc2c1cc1n(c2=O)Cc2c-1nc1cc(Br)c(C)c(F)c1c2CN [Compound 2k] | 8.30 | 8.40 | 7.38 | 7.09 | 8.46 | 8.48 | 7.85 | 8.40 | 7.92 | 8.10 | 7.24 | 8.40 | –
